Experimental data from patent US11723889B2, “Amyloid fiber formation limiter or inhibitor” (Omoidesouzou Co., Ltd., priority 2014, dated 2023).

Key:
Assay type in all cases: in vivo, human
[1] = tested on: Alzheimer's disease; assay: Oral tranilast in a patient with Alzheimer's disease (Case 5), testing methods for dementia HDS-R and MMSE
Protocol: (§1) 2. Confirmation that the agent for suppressing or inhibiting an amyloid fibril formation of the present invention has a therapeutic effect against cerebral amyloidosis. Because it was shown that tranilast has the effect of suppressing amyloid fibril formation in the skin, whether dementia and Alzheimer's disease arising from amyloid fibril deposition in the brain could be ameliorated was studied. A patient with Alzheimer's disease (person) was administered orally with a 100 mg capsule of tranilast (brand name: Rizaben, Kissei Pharmaceutical Co., Ltd.) three times a day. About 5 months after the start of administration of tranilast on Oct.

[2] = tested on: cutaneous amyloidosis; assay: Oral tranilast treatment of patients with cutaneous amyloidosis / cutaneous lichen amyloidosis (Cases 1-3), clinical observation of skin symptoms
Excerpt: 1. Confirmation that the agent for suppressing or inhibiting an amyloid fibril formation of the present invention has a therapeutic effect against cutaneous amyloidosis.
patient one observed with symptoms of cutaneous amyloidosis specific pigment-associating invasion and itch in the upper back had been treated without tranilast for an initial duration of 4 years, however, no therapeutic effect was observed. Therefore, the treatment shifted to the use of tranilast. The above-mentioned patient was administered orally with a 100 mg capsule of tranilast (brand name: Rizaben, Kissei Pharmaceutical Co., Ltd.) three times a day. […] Worsening or relapse of rash was not observed at least 3 years afterwards.
Therefore, the treatment shifted to the use of tranilast. The above-mentioned patient was administered orally with a 100 mg capsule of tranilast (brand name: Rizaben, Kissei Pharmaceutical Co., Ltd.) three times a day. From day 16 (Jul. 16, 2014) (see FIG. 1B) after the start of oral administration on Jun. […] The degree of amelioration of rash increased day by day (see FIGS. 1C to 1E).
A patient observed with chronic eczema with rash along with strong itch in the upper back for several years started the treatment with tranilast. The patient was administered orally with a 100 mg capsule of tranilast (brand name: Rizaben, Kissei Pharmaceutical Co., Ltd.) three times a day. When the oral administration started on Jul. 29, 2014, amyloid deposited brown papule was densely lichenified (see FIG. 2A).

[3] = tested on: dementia; assay: Oral tranilast in a patient with dementia (Case 4), testing methods for dementia HDS-R and MMSE
Protocol: as §1, with “dementia (patient two)” for “Alzheimer's disease (person)”, “day.” for “day. About 5 months after the start of administration of tranilast on Oct.”

[4] = Case 1, 100 mg capsule orally three times a day, within another 1 month (about 2 months after start)
[5] = 1 year and 4 months after start of administration (December 2013)

Structure (SMILES): COc1ccc(/C=C/C(=O)Nc2ccccc2C(=O)O)cc1OC [tranilast, N-(3,4-dimethoxycinnamoyl)anthranilic acid]
- effect on the symptoms of Alzheimer's type dementia by HDS-R and MMSE ([1]; 100 mg capsule orally three times a day, about 5 months after start): clear ameliorating effect
- HDS-R Value ([1]; about 5 months after start (Mar. 19, 2015), value at start of administration 9): 12
- MMSE Value ([1]; about 5 months after start (Mar. 19, 2015), value at start of administration 14): 22
- pigmentation ([2]; Case 1, upper back, 100 mg capsule orally three times a day, about 1 month after start of oral administration): started to thin
- itch [2, 4]: reduced
- rash [2, 4]: largely ameliorated
- worsening or relapse of rash ([2]; Case 1, at least 3 years afterwards): not observed
- amyloid deposited brown papule ([2]; Case 2, 100 mg capsule orally three times a day, day 151 after start of oral administration): almost disappeared
- amyloid deposited brown papule ([2]; Case 2, 100 mg capsule orally three times a day, from day 16 after start of oral administration): thinned, decreased in size, and ameliorated clearly
- condition (papule almost disappeared) maintained until ([2]; Case 2, day after start of oral administration): ≥ 238 days
- symptoms (densely lichenified amyloid deposited brown papule) ([2]; Case 3, upper back, 100 mg capsule orally three times a day, day 15 after start): improvement in the symptoms was observed
- symptoms (densely lichenified amyloid deposited brown papule) ([2]; Case 3, 100 mg capsule orally three times a day, day 29 after start): clear improvement in the symptoms was observed
- improved condition maintained until ([2]; Case 3, day after start of oral administration): ≥ 89 days
- effect by two testing methods for dementia (HDS-R and MMSE) ([3]; 100 mg capsule orally three times a day, 1 year and 4 months after start): clear ameliorating effect
- HDS-R Value [3, 5]: 20
- MMSE Value [3, 5]: 25
- HDS-R Value ([3]; 5 months after start of administration (January 2013), 23 at 1 year and 5 months before start): 15
- MMSE Value ([3]; 5 months after start of administration (January 2013), 27 at 1 year and 5 months before, 28 at 3 years and 10 months before): 22
